The record followed here is patent publication US11572590B2, “Methods for evaluating tumor cell spheroids using 3D microfluidic cell culture device” (Dana-Farber Cancer Institute, Inc., priority 2017, dated 2023).

What all share (assay): SelectScreen Kinase Profiling, single point inhibition and IC50 for off-target kinases
Format in all cases: biochemical

Assay [1] has as its target off-target kinases (Homo sapiens, UniProt P22607). Particulars: FGFR3, ZLYTE, ATP Km app.
Assay [2] has as its target off-target kinases (Homo sapiens, UniProt O75582). Particulars: RPS6KA5 (MSK1), ZLYTE, ATP Km app.
The target in assay [3] is off-target kinases (Homo sapiens, UniProt Q9UPE1). Particulars: STK23 (MSSK1), ZLYTE, ATP Km app.
For assay [4], the target named is T1, off-target kinases (Homo sapiens, UniProt Q9UL54).
T1 sequence (Q9UL54 1-1235): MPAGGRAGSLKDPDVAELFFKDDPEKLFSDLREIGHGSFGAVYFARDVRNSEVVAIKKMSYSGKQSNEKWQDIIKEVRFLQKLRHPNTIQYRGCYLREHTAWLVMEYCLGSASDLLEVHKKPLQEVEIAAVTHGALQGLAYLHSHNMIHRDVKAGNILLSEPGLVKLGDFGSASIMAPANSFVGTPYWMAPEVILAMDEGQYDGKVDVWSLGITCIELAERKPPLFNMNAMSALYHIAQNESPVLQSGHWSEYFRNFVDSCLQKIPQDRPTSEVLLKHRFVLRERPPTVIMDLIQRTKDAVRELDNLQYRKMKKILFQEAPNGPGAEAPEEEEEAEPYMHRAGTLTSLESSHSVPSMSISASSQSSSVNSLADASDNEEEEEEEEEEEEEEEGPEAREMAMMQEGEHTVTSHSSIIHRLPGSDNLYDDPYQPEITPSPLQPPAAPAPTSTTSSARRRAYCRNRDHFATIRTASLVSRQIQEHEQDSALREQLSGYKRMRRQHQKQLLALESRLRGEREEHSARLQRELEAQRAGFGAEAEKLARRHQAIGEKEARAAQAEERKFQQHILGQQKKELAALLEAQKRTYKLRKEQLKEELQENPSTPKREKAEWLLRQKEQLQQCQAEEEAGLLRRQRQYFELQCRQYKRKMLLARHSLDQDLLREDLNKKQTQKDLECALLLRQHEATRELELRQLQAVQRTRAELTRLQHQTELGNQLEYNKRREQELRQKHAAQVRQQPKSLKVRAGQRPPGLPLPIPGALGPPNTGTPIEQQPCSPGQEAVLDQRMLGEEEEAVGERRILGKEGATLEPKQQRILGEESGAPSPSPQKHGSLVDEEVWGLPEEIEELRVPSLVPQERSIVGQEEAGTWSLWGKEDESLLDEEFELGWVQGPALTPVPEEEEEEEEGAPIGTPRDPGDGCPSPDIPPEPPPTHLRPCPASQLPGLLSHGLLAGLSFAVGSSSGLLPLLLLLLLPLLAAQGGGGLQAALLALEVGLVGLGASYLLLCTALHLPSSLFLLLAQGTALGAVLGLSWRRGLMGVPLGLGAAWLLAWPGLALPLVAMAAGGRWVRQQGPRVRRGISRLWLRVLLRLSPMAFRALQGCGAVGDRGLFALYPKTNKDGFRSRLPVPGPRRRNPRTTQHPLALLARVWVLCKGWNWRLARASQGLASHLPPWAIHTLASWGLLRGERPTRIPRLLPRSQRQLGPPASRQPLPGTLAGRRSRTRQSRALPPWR
Particulars: TAOK2 (TAO1), ZLYTE, ATP Km app.

The target in assay [5] is off-target kinases (Homo sapiens, UniProt Q05655). Particulars: PRKCD (PKC delta), ZLYTE, ATP Km app.
Assay [6] concerns the target off-target kinases (Homo sapiens, UniProt P51451). Particulars: BLK, ATP Km app, ZLYTE.

Like-named read-outs stand apart in the source and are kept apart here.

Sequence of off-target kinases (Homo sapiens, UniProt P22607) (P22607 23-806): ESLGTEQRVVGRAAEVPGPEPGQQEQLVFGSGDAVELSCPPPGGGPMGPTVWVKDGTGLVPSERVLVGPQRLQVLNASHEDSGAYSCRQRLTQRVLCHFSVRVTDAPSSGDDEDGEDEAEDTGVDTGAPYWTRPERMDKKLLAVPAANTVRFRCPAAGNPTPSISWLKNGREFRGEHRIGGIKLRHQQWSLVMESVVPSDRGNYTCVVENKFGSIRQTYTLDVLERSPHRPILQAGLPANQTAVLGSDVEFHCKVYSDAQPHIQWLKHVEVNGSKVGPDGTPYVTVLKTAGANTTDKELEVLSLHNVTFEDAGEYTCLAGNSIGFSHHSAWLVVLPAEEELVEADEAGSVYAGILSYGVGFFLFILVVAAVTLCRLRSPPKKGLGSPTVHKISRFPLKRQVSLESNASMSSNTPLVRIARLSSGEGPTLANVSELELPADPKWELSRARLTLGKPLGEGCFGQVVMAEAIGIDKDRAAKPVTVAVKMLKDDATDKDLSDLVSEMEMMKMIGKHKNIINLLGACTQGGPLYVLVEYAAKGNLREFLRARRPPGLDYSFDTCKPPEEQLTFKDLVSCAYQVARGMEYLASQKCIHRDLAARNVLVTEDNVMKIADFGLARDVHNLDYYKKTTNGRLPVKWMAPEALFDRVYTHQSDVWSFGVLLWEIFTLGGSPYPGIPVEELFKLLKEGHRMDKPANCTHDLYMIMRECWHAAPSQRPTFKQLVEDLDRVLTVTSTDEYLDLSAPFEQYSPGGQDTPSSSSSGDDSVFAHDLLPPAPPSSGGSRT
Sequence of off-target kinases (Homo sapiens, UniProt P51451) (P51451 whole entry): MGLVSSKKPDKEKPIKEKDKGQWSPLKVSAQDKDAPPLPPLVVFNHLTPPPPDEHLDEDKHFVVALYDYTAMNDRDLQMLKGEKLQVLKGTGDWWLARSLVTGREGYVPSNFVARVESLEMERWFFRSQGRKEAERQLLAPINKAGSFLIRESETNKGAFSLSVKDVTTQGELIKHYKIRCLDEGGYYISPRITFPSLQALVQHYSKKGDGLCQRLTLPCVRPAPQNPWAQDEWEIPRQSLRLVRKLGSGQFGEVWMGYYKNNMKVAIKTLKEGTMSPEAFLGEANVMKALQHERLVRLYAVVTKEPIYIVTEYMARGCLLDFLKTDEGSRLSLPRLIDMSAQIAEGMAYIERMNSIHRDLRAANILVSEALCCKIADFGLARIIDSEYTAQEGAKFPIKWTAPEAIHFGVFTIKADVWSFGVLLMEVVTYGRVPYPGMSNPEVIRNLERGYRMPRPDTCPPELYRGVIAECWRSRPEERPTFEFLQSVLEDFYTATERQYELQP
Sequence of off-target kinases (Homo sapiens, UniProt Q9UPE1) (Q9UPE1 whole entry): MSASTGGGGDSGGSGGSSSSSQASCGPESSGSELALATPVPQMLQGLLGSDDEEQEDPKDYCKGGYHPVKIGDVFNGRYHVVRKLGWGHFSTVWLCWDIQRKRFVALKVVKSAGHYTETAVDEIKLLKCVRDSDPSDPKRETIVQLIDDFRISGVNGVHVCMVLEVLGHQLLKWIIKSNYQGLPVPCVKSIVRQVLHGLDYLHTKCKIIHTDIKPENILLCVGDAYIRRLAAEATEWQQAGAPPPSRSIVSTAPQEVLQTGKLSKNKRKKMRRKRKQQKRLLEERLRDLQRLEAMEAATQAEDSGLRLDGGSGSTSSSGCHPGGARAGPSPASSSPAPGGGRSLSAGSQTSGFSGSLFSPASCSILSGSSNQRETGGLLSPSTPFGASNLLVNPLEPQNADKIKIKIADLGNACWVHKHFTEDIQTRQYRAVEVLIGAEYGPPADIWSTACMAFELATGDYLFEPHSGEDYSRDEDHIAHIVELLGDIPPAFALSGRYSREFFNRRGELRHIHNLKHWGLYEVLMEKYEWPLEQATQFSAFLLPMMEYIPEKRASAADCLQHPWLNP
Sequence of off-target kinases (Homo sapiens, UniProt Q05655) (Q05655 whole entry): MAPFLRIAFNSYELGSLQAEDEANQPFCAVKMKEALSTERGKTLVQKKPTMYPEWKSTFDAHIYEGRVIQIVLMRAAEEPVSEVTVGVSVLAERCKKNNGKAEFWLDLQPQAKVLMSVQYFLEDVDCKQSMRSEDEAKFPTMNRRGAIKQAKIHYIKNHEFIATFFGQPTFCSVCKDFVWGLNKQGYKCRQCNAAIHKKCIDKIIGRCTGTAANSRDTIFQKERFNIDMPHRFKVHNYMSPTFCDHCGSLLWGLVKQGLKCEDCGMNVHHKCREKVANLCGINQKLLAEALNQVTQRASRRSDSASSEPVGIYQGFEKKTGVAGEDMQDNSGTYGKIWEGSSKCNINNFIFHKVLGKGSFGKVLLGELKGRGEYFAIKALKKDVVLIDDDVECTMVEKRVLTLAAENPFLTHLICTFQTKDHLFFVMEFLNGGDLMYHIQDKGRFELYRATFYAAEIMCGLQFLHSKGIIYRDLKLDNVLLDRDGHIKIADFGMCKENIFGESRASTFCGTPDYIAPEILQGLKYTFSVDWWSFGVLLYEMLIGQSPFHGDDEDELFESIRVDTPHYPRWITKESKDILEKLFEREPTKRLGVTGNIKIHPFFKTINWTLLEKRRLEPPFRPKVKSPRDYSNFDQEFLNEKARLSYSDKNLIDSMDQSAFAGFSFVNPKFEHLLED
Sequence of off-target kinases (Homo sapiens, UniProt O75582) (O75582 whole entry): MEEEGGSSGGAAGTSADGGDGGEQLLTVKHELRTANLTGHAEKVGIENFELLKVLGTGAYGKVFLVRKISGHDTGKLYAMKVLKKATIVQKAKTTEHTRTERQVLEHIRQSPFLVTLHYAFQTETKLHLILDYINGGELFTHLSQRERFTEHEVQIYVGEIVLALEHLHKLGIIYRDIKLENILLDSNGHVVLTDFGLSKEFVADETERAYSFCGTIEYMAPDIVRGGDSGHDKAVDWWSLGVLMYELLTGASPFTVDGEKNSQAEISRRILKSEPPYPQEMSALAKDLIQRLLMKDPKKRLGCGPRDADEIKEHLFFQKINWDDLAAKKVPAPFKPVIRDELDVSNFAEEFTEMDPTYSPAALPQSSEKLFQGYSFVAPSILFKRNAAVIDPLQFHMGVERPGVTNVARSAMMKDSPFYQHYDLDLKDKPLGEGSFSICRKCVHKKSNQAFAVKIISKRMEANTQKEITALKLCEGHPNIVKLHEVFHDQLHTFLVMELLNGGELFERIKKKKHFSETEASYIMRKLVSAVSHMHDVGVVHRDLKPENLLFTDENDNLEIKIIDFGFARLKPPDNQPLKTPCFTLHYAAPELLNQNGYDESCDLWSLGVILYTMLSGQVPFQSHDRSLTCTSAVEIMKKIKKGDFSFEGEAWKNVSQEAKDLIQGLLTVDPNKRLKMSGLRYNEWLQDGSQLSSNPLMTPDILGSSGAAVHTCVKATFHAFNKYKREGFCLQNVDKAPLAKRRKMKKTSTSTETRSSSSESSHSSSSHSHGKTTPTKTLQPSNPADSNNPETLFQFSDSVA

In the case of `N#Cc1cc(-c2ncnc(Nc3ccc(N4CCN(C5COC5)CC4)cc3)n2)ccc1OC1CCOCC1` [Compound 1, 5-(4-((4-(4-(oxetan-3-yl)piperazin-1-yl)phenyl)amino)-1,3,5-triazin-2-yl)-2-((tetrahydro-2H-pyran-4-yl)oxy)benzonitrile], the inhibition worked out at 6% on off-target kinases [1] (read-out: % Inhibition 1); 4% on off-target kinases [1] (read-out: % Inhibition 2); 5% on off-target kinases [1] (read-out: % Inhibition Avg); 6% at off-target kinases [2] (read-out: % Inhibition 1); 3% at off-target kinases [2] (read-out: % Inhibition 2); 4% at off-target kinases [2] (read-out: % Inhibition Avg). Also, the inhibition turned out to be 2% on off-target kinases [3] (read-out: % Inhibition 1); 1% at off-target kinases [3] (read-out: % Inhibition 2); 2% at off-target kinases [3] (read-out: % Inhibition Avg); 3% on off-target kinases [4] (read-out: % Inhibition 1); 6% on off-target kinases [4] (read-out: % Inhibition 2); 5% at off-target kinases [4] (read-out: % Inhibition Avg). Further, the inhibition was 4% on off-target kinases [5] (read-out: % Inhibition 1); -4% on off-target kinases [5] (read-out: % Inhibition 2); 0% at off-target kinases [5] (read-out: % Inhibition Avg); 41% on off-target kinases [6] (read-out: % Inhibition 1); 42% at off-target kinases [6] (read-out: % Inhibition 2); 42% at off-target kinases [6] (read-out: % Inhibition Avg).
